These are literature values, as cited in patent US20110091452A1, “4,5-Dihydromacbecin Derivatives and Their Use in the Treatment of Cancer or B-Cell Malignancies” (priority 2006, published 2011).

For one data set, the system named is bacteria and fungi. As to conditions: in vitro.
Data set [1] addresses terminal deoxynucleotidyl transferase (Homo sapiens, UniProt P04053).
In the next data set the target is Hsp90 (Homo sapiens, UniProt P07900).

terminal deoxynucleotidyl transferase, sequence (P04053 whole entry, species assumed): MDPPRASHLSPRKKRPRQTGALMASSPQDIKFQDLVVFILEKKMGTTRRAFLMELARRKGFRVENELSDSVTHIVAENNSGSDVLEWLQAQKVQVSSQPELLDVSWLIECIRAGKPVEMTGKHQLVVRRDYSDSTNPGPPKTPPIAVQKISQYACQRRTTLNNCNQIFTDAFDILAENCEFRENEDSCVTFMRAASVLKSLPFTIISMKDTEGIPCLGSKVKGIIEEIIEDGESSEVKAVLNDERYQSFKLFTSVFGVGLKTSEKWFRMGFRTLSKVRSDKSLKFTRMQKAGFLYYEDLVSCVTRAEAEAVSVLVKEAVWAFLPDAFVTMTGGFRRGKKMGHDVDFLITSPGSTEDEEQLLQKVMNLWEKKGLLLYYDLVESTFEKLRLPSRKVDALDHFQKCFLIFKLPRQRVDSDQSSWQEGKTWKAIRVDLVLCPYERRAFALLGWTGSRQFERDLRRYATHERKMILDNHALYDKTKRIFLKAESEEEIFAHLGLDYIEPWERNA

With `COC1=C2C[C@@H](C)C[C@H](OC)[C@H](O)[C@@H](C)/C=C(\C)[C@H](OC(N)=O)[C@@H](OC)/C=C\C=C(/C)C(=O)NC(=CC1=O)C2=O` [geldanamycin], in the data set with protozoa, the “activity in vitro against protozoa” value is given as “strong activity”. Further, the “activity against bacteria and fungi” value with bacteria and fungi was “weak activity”.

On to `CO[C@H]1[C@@H](OC)C[C@H](C)[C@@H](OC)C2=CC(=O)C=C(NC(=O)/C(C)=C/C=C\[C@H](C)[C@@H](OC(N)=O)/C(C)=C/[C@@H]1C)C2=O` [macbecin], for which the “inhibition of terminal deoxynucleotidyl transferase activity” value in data set [1] is “not inhibited”. Further, the “inhibition of reverse transcriptase activity” value with Reverse transcriptase is reported as “not inhibited”.

For `CO[C@H]1C[C@H](C)Cc2cc(O)cc(c2)NC(=O)/C=C/CC[C@H](OC)[C@@H](OC(N)=O)/C(C)=C/[C@H](C)[C@H]1O` [KOSN1559], the “binding affinity to Hsp90, greater than 17-AAG” value on Hsp90 (relative to 17-AAG) is 8 fold. Moreover, the “binding affinity to Hsp90, greater than geldanamycin” value on Hsp90 (relative to geldanamycin) is given as 4 fold.
